# Values quoted from earlier work, collected in US20100086592A1, “MODIFIED DOSAGE FORMS OF TACROLIMUS” (PANACEA BIOTEC LIMITED., priority 2007, published 2010).
# Read-outs that look alike come from different tables or passages of the source.
# Details: oral
compound,measurement,setting,value
"C=CC[C@@H]1/C=C(\C)C[C@H](C)C[C@H](OC)[C@H]2O[C@@](O)(C(=O)C(=O)N3CCCC[C@H]3C(=O)O[C@H](/C(C)=C/[C@@H]3CC[C@@H](O)[C@H](OC)C3)[C@H](C)[C@@H](O)CC1=O)[C@H](C)C[C@@H]2OC [tacrolimus, Tacrolimus]",absolute bioavailability,adult heart transplantation patients (N=11),23±9%
same,absolute bioavailability,adult liver transplant patients (N=17),22±6%
same,absolute bioavailability,healthy volunteers (N=16),18±5%
